{"source": "patent US20140073694A1", "about": "“CYSTAMINE ANALOGUES FOR THE TREATMENT OF PARKINSON'S DISEASE” (UNIVERSITE LAVAL, priority 2011, published 2014)", "test_system": "MPTP-treated mice", "assay": "Subacute MPTP mouse model of Parkinson's disease: nigral DAergic markers (TH, Nurr1, DAT)", "type": "in vivo, C57BL/6 mice", "experimental": "Young adult (9-week old, 25 grams) male C57BL/6 mice were purchased from Charles River Laboratories (Montréal, QC, Canada). Animals were housed 4 per cage under standard conditions with free access to food and water, randomized and handled under the same conditions by one investigator. All experiments were performed in accordance with the Canadian Council on Animal Care and were approved by the Institutional Committee of the Centre Hospitalier de l'Université Laval (CHUL, Québec, Canada). Throughout the experiment, the health status of all mice included in the study was closely monitored for weight loss or other signs of health-related issues. All efforts were made to minimize animal pain and discomfort.\nMice received 7 i.p. injections, twice on the first 2 days of the experimental protocol at an interval of 12 hrs and once a day on 3 subsequent days, of either saline 0.9% or MPTP-HCl (20 mg/kg free base; Sigma, St. Louis, Mo.) dissolved in saline 0.9% prepared fresh (Tremblay et al., 2006; Gibrat et al., 2007; Gibrat et al., 2010).\nBeneficial effects of cystamine in parkinsonian mice (cystamine dihydrochloride, Sigma, St. Louis, Mo.) were evaluated with a dose of 10 mg/kg dissolved in sterile saline 0.9% and prepared fresh for daily i.p. injection 1 hr before MPTP administration. The choice of dose and regime of administration was based on our previous findings (Tremblay et al., 2006; Gibrat et al., 2010). The first injection of cystamine was administered either 1) 2 days before the start of MPTP injections (pre-treatment) or 2) 24 hours after the last MPTP dose (post-treatment), and the treatment continued daily for 14 days post injury.\nThe effects of cystamine on the MPTP toxicity were studied in the following experimental groups: Group I, Saline+Saline; Group II, Saline+Cystamine post-treatment; Group III; Saline+Cystamine pre-treatment; Group IV, MPTP+Saline; Group V, MPTP+Cystamine post-treatment, Group VI, MPTP+Cystamine pre-treatment. In total, 96 mice (n=16 per group) were utilized, monitored daily for weight variation, and ultimately sacrificed by perfusion 24 hrs after the last cystamine (or vehicle) injection.\nExperiment 1. All mice were subjected to intracardiac perfusion with RNAse free 0.1 M phosphate-buffered saline (PBS). After intracardiac perfusion, brains were collected and the two hemispheres were separated. The left hemisphere was post-fixed in 4% paraformaldehyde (PFA) for 48 hrs and transferred to 20% sucrose in 0.1 M PBS for cryoprotection. Coronal brain sections of 25 μm thickness were cut onto a freezing microtome (Leica Microsystems, Montreal, QC) and serially collected in anti-freeze solution (monophosphate sodium monobasic 0.2 M, monophosphate sodium dibasic 0.2 M, ethylene glycol 30%, glycerol 20%) and kept at −20° C. until use. Sections from the left hemisphere were utilized for additional immunohistochemistry and in situ hybridization protocols. The right hemispheres were snap-frozen in 2-methyl-butane and then stored at −80° C. until cryostat dissection for HPLC and western-blot (WB) analyses.\nFor assessment of DAergic neuronal-loss, immunohistochemistry against the enzyme TH was performed as previously described (Tremblay et al., 2006; Gibrat et al., 2009). Briefly, free-floating sections, after several washes and blocking preincubation, were incubated overnight at 4° C. with a rabbit anti-TH (Pel-Freez, Rogers, Ark.; 1:5000). Sections were then incubated for 1 hr at room temperature (RT) in a solution containing biotinylated goat anti-rabbit IgG (Vector Laboratories, Burlington, ON; 1:1500) and subsequently placed in a solution containing avidin-biotin peroxidase complex (ABC Elite kit; Vector Laboratories, Burlington, ON) for 1 hr at RT. Finally, the reaction was developed in 3,3′ diaminobenzidine tetrahydrochloride (DAB) solution (Sigma, St. Louis, Mo.) and 0.1% of 30% hydrogen peroxide (Sigma, St. Louis, Mo.) at RT. […]", "key": {"[1]": {"conditions": "post-treatment: 10 mg/kg i.p. daily started 24 h after last MPTP dose, 14 days"}, "[2]": {"conditions": "pre-treatment: 10 mg/kg i.p. daily started 2 days before MPTP"}}, "note": "“Also recorded” adds a separate entry of the source.", "data": [{"smiles": "NCCSSCCN", "note": "[cystamine, Cystamine]", "values": [{"measurement": "DAT mRNA / DAT mRNA expressing cells in the SNpc", "setting": "[1]", "result": "significant recovery; also recorded: higher level; also recorded: comparable number of DAT-positive cells as saline treated animals"}, {"measurement": "Nurr1 mRNA levels in the SNpc", "setting": "[1]", "result": "significant recovery; also recorded: normal levels of Nurr1 mRNA; also recorded: higher level of Nurr1"}, {"measurement": "TH-positive and Nissl-positive neurons in the SNpc, stereological count", "setting": "[1]", "result": "significant recovery of the number of nigral DAergic neurons; also recorded: significantly greater number of TH-positive and Nissl-positive neurons"}, {"measurement": "Nurr1 mRNA levels in the SNpc", "setting": "[2]", "result": "normalization of Nurr1 mRNA levels"}, {"measurement": "SNpc neurons expressing DAT", "setting": "[2]", "result": "normalization; also recorded: comparable number of DAT-positive cells as saline treated animals"}, {"measurement": "TH-immunoreactive (TH-positive) neurons in the SNpc, stereological count", "setting": "pre-treatment: 10 mg/kg i.p. daily started 2 days before MPTP, continued 14 days post injury", "result": "increase density of TH-immunoreactive cells in the SNpc"}]}]}
